Consider six molecules from ChEMBL document CHEMBL2440050 (ACS Med Chem Lett, 2013).

Some results are limits rather than exact numbers.

For test [1], the system named is HCT-116. The test is described as follows: Growth inhibition of vinblastine-sensitive human HCT116 cells after 72 hrs by phosphatase assay. Particulars: HCT-116, 72 h. The format is functional, cell-based.
Test [2] in a line: Ratio of vinblastine IC50 to compound IC50 for human SW403 cells by MTS assay. The format is functional. (In general: Tetrazolium dyes change colour on reduction, which living cells bring about.)
Test [3] concerns HCT-116. The test is described as follows: Ratio of vinblastine IC50 to compound IC50 for vinblastine-sensitive human HCT116 cells by phosphatase assay. The format is functional.
Test [4] in a line: Ratio of vinblastine IC50 to compound IC50 for human LNCaP-FGC cells by MTS assay. The test is classed as functional.
For test [5], the system named is HCC1143. Briefly: Ratio of vinblastine IC50 to compound IC50 for human HCC1143 cells by MTS assay. The format is functional.
Test [6] concerns AU565. Briefly: Ratio of vinblastine IC50 to compound IC50 for human AU565 cells by MTS assay. The test is classed as functional.
In test [7] the test system is HCT-116. The test is described as follows: Ratio of vinblastine IC50 to compound IC50 for vinblastine-sensitive human HCT116 cells by MTS assay. The format is functional.
Test [8] can be described thus: Growth inhibition of human SW403 cells after 72 hrs by MTS assay. Particulars: SW-403, 72 h. The format is functional, cell-based.
Test [9] deals with HCT-116/VM46. Briefly: Growth inhibition of vinblastine-resistant human HCT116/VM46 cells overexpressing P-gp after 72 hrs by MTS assay. The test is classed as functional, cell-based. Particulars: HCT-116/VM46, 72 h.
Test [10] in a line: Growth inhibition of human KPL4 cells after 72 hrs by MTS assay. The test is classed as functional, cell-based. Particulars: KPL4, 72 h.
Test [11] concerns NCI-H520. Briefly: Growth inhibition of human NCI-H520 cells after 72 hrs by MTS assay. The test is classed as functional, cell-based. Particulars: NCI-H520, 72 h.
For test [12], the system named is MDA-MB-468. The test is described as follows: Growth inhibition of human MDA-MB-468 cells after 72 hrs by MTS assay. Particulars: MDA-MB-468, 72 h. The test is classed as functional, cell-based.
In test [13] the test system is ZR-75-1. Briefly: Ratio of vinblastine IC50 to compound IC50 for human ZR-75-1 cells by MTS assay. The test is classed as functional.
In test [14] the test system is MDA-MB-468. Briefly: Ratio of vinblastine IC50 to compound IC50 for human MDA-MB-468 cells by MTS assay. The test is classed as functional.
Test [15] deals with NCI-H520. The test is described as follows: Ratio of vinblastine IC50 to compound IC50 for human NCI-H520 cells by MTS assay. The format is functional.
For test [16], the system named is PA-1. Briefly: Ratio of vinblastine IC50 to compound IC50 for human PA1 cells by MTS assay. The test is classed as functional.
Test [17] relates to HCT-116. The test is described as follows: Ratio of IC50 for vinblastine-resistant human HCT116/VM46 cells overexpressing P-gp to IC50 for vinblastine-sensitive human HCT116 cells by phosphatase assay. The test is classed as functional.
The test system of test [18] is HCC70. Briefly: Ratio of vinblastine IC50 to compound IC50 for human HCC70 cells by MTS assay. The test is classed as functional.
Another test concerns LS174T. Briefly: Ratio of vinblastine IC50 to compound IC50 for human LS 174T cells by MTS assay. The format is functional.
Test [19] has as its system HCT-116/VM46. Briefly: Ratio of vinblastine IC50 to compound IC50 for vinblastine-resistant human HCT116/VM46 cells overexpressing P-gp by MTS assay. The test is classed as functional.
For test [20], the system named is T47D. Briefly: Ratio of vinblastine IC50 to compound IC50 for human T47D cells by MTS assay. The test is classed as functional.
The next test has as its system MCF7. The test is described as follows: Growth inhibition of human MCF7 cells after 72 hrs by MTS assay. As to conditions: MCF7, 72 h. The test is classed as functional, cell-based.
In test [21] the test system is PA-1. The test is described as follows: Growth inhibition of human PA1 cells after 72 hrs by MTS assay. The format is functional, cell-based. Particulars: PA-1, 72 h.
Test [22] has as its system HCT-116. Briefly: Growth inhibition of vinblastine-sensitive human HCT116 cells after 72 hrs by MTS assay. The test is classed as functional, cell-based. As to conditions: HCT-116, 72 h.
For test [23], the system named is T47D. Briefly: Growth inhibition of human T47D cells after 72 hrs by MTS assay. The format is functional, cell-based.
The test system of test [24] is L1210. Briefly: Growth inhibition of mouse L1210 cells after 72 hrs by phosphatase assay. The format is functional, cell-based. As to conditions: L1210, 72 h.
Test [25] in a line: Growth inhibition of human LNCaP-FGC cells after 72 hrs by MTS assay. The test is classed as functional, cell-based. As to conditions: LNCaP-Clone-FGC.
In test [26] the test system is L1210. Briefly: Ratio of vinblastine IC50 to compound IC50 for mouse L1210 cells by phosphatase assay. The test is classed as functional.
Test [27] in a line: Growth inhibition of human LS 174T cells after 72 hrs by MTS assay. Particulars: LS174T. The test is classed as functional, cell-based.
Test [28] relates to ZR-75-1. The test is described as follows: Growth inhibition of human ZR-75-1 cells after 72 hrs by MTS assay. The format is functional, cell-based. Particulars: ZR-75-1, 72 h.
The test system of test [29] is HCC70. The test is described as follows: Growth inhibition of human HCC70 cells after 72 hrs by MTS assay. Particulars: HCC70, 72 h. The format is functional, cell-based.
Test [30] has as its system HCT-116/VM46. The test is described as follows: Ratio of vinblastine IC50 to compound IC50 for vinblastine-resistant human HCT116/VM46 cells overexpressing P-gp by phosphatase assay. The test is classed as functional.
Test [31] has as its system HCT-116/VM46. Briefly: Growth inhibition of vinblastine-resistant human HCT116/VM46 cells overexpressing P-gp after 72 hrs by phosphatase assay. The format is functional, cell-based. As to conditions: HCT-116/VM46, 72 h.
The subject of test [32] is AU565. The test is described as follows: Growth inhibition of human AU565 cells after 72 hrs by MTS assay. The format is functional, cell-based. Particulars: AU565, 72 h.
Test [33] in a line: Ratio of vinblastine IC50 to compound IC50 for human KPL4 cells by MTS assay. The test is classed as functional.
For test [34], the system named is HCC1143. Briefly: Growth inhibition of human HCC1143 cells after 72 hrs by MTS assay. The test is classed as functional, cell-based. As to conditions: HCC1143, 72 h.

As a reminder, the IC50 is the concentration at which inhibition is half-maximal. Lower therefore signals inhibition by little substance. Regarding `CC[C@]1(NC(=O)N2CC=CCC2)C[C@H]2CN(CCc3c([nH]c4ccccc34)[C@@](C(=O)OC)(c3cc4c(cc3OC)N(C)[C@H]3[C@@](O)(C(=O)OC)[C@H](OC(C)=O)[C@]5(CC)C=CCN6CC[C@]43[C@@H]65)C2)C1`, the IC50 in the test on HCT-116 [1] came to 0.52 nM; in test [8], 0.5 nM; in the test with HCT-116/VM46 [9], 6.4 nM; in test [10], 0.06 nM; with NCI-H520 [11], 0.17 nM; with MDA-MB-468 [12], 0.4 nM. Further, the IC50 with MCF7 is greater than 12.5 nM; in the test with PA-1 [21] it was 0.11 nM; in the test with HCT-116 [22], 0.22 nM; with T47D [23], 0.51 nM; in the test with L1210 [24], 0.52 nM; in [25], 0.45 nM. Further, the IC50 came to 0.46 nM in [27]; 0.71 nM in the test with ZR-75-1 [28]; 0.21 nM in the test on HCC70 [29]; 8.4 nM in the test with HCT-116/VM46 [31]; 0.15 nM in the test with AU565 [32]; 0.13 nM with HCC1143 [34]. Further, the “Ratio IC50” value (in test [2]; in the test on HCT-116 [3]; in test [4]; in the test with HCC1143 [5]; with AU565 [6]; in the test on HCT-116 [7]) was 10 in each case. Besides, the “Ratio IC50” value in the test with ZR-75-1 [13] was determined as 10; in the test with MDA-MB-468 [14], 10; with NCI-H520 [15], 10; in the test on PA-1 [16], 10; in the test with HCT-116 [17], 13; in the test with HCC70 [18], 10. The “Ratio IC50” value with LS174T is recorded as 10; in the test on HCT-116/VM46 [19] it was 10; with T47D [20], 10; in the test on L1210 [26], 10; in the test with HCT-116/VM46 [30] it was 80; in [33], 10.
For `CC[C@]1(NC(=O)N2CCN(C)CC2)C[C@H]2CN(CCc3c([nH]c4ccccc34)[C@@](C(=O)OC)(c3cc4c(cc3OC)N(C)[C@H]3[C@@](O)(C(=O)OC)[C@H](OC(C)=O)[C@]5(CC)C=CCN6CC[C@]43[C@@H]65)C2)C1`, the IC50 is 3.4 nM in the test on HCT-116 [1], 7.7 nM in the test on L1210 [24] and 710 nM in the test with HCT-116/VM46 [31].
Take `CC[C@]1(NC(=O)N2Cc3ccc(OC)cc3C2)C[C@H]2CN(CCc3c([nH]c4ccccc34)[C@@](C(=O)OC)(c3cc4c(cc3OC)N(C)[C@H]3[C@@](O)(C(=O)OC)[C@H](OC(C)=O)[C@]5(CC)C=CCN6CC[C@]43[C@@H]65)C2)C1`: the IC50 stood at 0.69 nM with HCT-116 [1], 0.61 nM in the test with L1210 [24] and 8.7 nM in the test with HCT-116/VM46 [31]. Besides, the “Ratio IC50” value in the test with HCT-116 [3] worked out at 10; with HCT-116 [17] it was 13; in the test on L1210 [26], 10; with HCT-116/VM46 [30], 80.
In turn, `CC[C@]1(NC(N)=O)C[C@H]2CN(CCc3c([nH]c4ccccc34)[C@@](C(=O)OC)(c3cc4c(cc3OC)N(C)[C@H]3[C@@](O)(C(=O)OC)[C@H](OC(C)=O)[C@]5(CC)C=CCN6CC[C@]43[C@@H]65)C2)C1` yielded an IC50 in the test on L1210 [24] of 40 nM.
Turning to `CC[C@]1(NC(=O)N2CCCCC2)C[C@H]2CN(CCc3c([nH]c4ccccc34)[C@@](C(=O)OC)(c3cc4c(cc3OC)N(C)[C@H]3[C@@](O)(C(=O)OC)[C@H](OC(C)=O)[C@]5(CC)C=CCN6CC[C@]43[C@@H]65)C2)C1`, it took 5.5 nM to reach half-maximal inhibition in the test with L1210 [24] (IC50).
For the molecule `CC[C@]1(NC(=O)N2CCCC2)C[C@H]2CN(CCc3c([nH]c4ccccc34)[C@@](C(=O)OC)(c3cc4c(cc3OC)N(C)[C@H]3[C@@](O)(C(=O)OC)[C@H](OC(C)=O)[C@]5(CC)C=CCN6CC[C@]43[C@@H]65)C2)C1`, the concentration for half-maximal inhibition (IC50) in the test with HCT-116 [1] came to 0.72 nM; in the test on L1210 [24], 0.7 nM; with HCT-116/VM46 [31], 50 nM.
